Data set [1] is described as follows: Solubility of rupatadine fumarate in water and in buffer solutions at different pH. The class given is physicochemical. The conditions noted are these: water; 25 g/L added, stirring 16 - 24 h, filtered; room temperature. How it is done:
The solubility of rupatadine fumarate was determined by adding 25 g/L of rupatadine fumarate to water and stirring during 16 - 24 h. The resulting solution was filtered and the amount of rupatadine determined using the Method 2. Using the same procedure, but using buffer solutions of known pH instead of water, the solubility of rupatadine fumarate at different pH was determined (the pH of the solution was measured prior to the addition of rupatadine fumarate).

Data set [2] can be described thus: Rate of formation of Compound II in aqueous solutions of rupatadine fumarate on storage (HPLC, Method 2). The class given is physicochemical. The conditions noted are these: aqueous solution 1 g(rupatadine fumarate)/L. How it is done: The HPLC method used to determine the % Compound II present in a formulation is based on the European Pharmacopoeia 2.2.29 using the following conditions: • room temperature and atmospheric pressure • column: C1810 µm (3.9 mm x 30 cm) • eluent: Methanol - Phosphate buffer solution pH 4.2 (75:25) • eluent flow: 1.3 mL/min • detection: UV-Visible spectrophotometer at 265 nm • retention time of Rupatadine: aprox. 8.9 min • relative retention time of Compound II: aprox. 0.43 Reference standard solutions of rupatadine and Compound II (which can be prepared as described in Reference Example 3) are used in the identification of the components. The test sample is compared to the equivalent placebo (same formulation without rupatadine fumarate) to check overlapping peaks with other excipients in the formulation. The % Compound II is calculated as 100*(area of Compound II peak)/(area of rupatadine peak). Different aqueous solutions comprising rupatadine fumarate at a concentration of 1 g(rupatadine fumarate)/L at different pH (3.41, 4.38 and 5.00), obtained adding the required amount of solutions of HCl(aq) or NaOH(aq) to solutions containing only water and rupatadine fumarate, were stored at different temperature conditions (room temperature and 40°C/75%HR) during two months and analyzed at the beginning, at one month and at the end of the period using Method 2, see table below.

Structures can show the parent of a compound that is named as a salt.

Take `Cc1cncc(CN2CCC(=C3c4ccc(Cl)cc4CCc4cccnc43)CC2)c1` [rupatadine fumarate]: the solubility in data set [1] stood at 2900 µg/mL. The “% Compound II 1 month” value came out at 0.174% in data set [2] (pH 3.41, 25 ± 2°C); 0.737% in data set [2] (pH 3.41, 40 ± 2°C); 0.090% in data set [2] (pH 4.38, 25 ± 2°C); 0.357% in data set [2] (pH 4.38, 40 ± 2°C); 0.039% in data set [2] (pH 5.00, 25 ± 2°C); 0.112% in data set [2] (pH 5.00, 40 ± 2°C). Further, the “% Compound II 2 months” value in data set [2] (pH 3.41, 25 ± 2°C) stood at 0.276%; in data set [2] (pH 3.41, 40 ± 2°C) it was 1.396%; in data set [2] (pH 4.38, 25 ± 2°C), 0.142%; in data set [2] (pH 4.38, 40 ± 2°C), 0.646%; in data set [2] (pH 5.00, 25 ± 2°C), 0.051%; in data set [2] (pH 5.00, 40 ± 2°C), 0.182%. For the same compound, the “% Compound II initial” value in data set [2] (pH 3.41) is reported as 0.035%; in data set [2] (pH 4.38) it was 0.036%; in data set [2] (pH 5.00), 0.040%.

(Values after patent EP2402012B1, “Liquid formulations of rupatadine fumarate” (J. Uriach y Compania S.A., priority 2010, dated 2012).)
